# Tests used:
# [1] = system: umbilical vein endothelial (HUVE) cells; conditions: cited from earlier work
# [2] = system: 8-hydroxy-2′-deoxyguanosine; conditions: Fenton reaction catalyzed by copper; cited from earlier work
# peroxyl radical = assay: Cell-based Antioxidant Protection (CAP-e) assay; conditions: per gram
# Description: (§1) Dihydroquercetin is a:far more powerful antioxidant than vitamins A, C and E, as indicated by its comparative USDA ranking of the Oxygen Radical Absorbance Capacity (ORAC) and supported by other additional studies such as Cell-based Antioxidant Protection (CAP-e) assay against peroxyl radical, which is used to test whether natural products contain antioxidants capable of entering into and protecting live cells from oxidative damage.
# (§2) The majority of HAT-based assays apply a competitive reaction scheme, in which antioxidant and substrate compete for thermally generated peroxyl radicals through the decomposition of azo compounds. ORAC and CAP-e can also be applied as an assays for the inhibition of induced low-density lipoprotein oxidation and other oxygen radical absorbances. […]
# (§3) Among all the HAT-based assays, ORAC and CAP-e adopted an AUC (area under curve) technique to quantify antioxidant capacity. […]
# (§4) Therefore, the ORAC and CAP-e assays has been broadly applied in academics and the food and supplement industry as the method of choice to quantify antioxidant capacity. […] The ORAChydro value of our dihydroquercetin has been measured at is 3,890 micromole of Trolox equivalent per […] capsule or 28,000 micromole Trolox equivalent per gram. The CAP-e value of our dihydroquercetin has been measured at is 9.9 CAP-e units per gram.
# [3] = system: human lung embryonic fibroblasts (TIG-1); conditions: TIG-1 cells; cited from earlier work
# [4] = ORAChydro (Oxygen Radical Absorbance Capacity) assay; assay type: physicochemical
# Description: as §1, §2, §3, §4
# bacterial mutagenicity = bacterial mutagenicity tests, cited from earlier work
# [5] = clinical feedback, usually females; cited from earlier work
compound,measurement,setting,value
O=C1c2c(O)cc(O)cc2O[C@H](c2ccc(O)c(O)c2)[C@H]1O [Dihydroquercetin],50% lethal concentration,[1],> 200 µmol
same,pro-oxidant activity,[2],did not present pro-oxidant activity
same,CAP-e value,peroxyl radical,9.9 CAP-e units per gram
same,50% lethal concentration,[3],> 300 µmol
same,ORAChydro value,[4]; per 412.3 mg capsule,"3,890 micromole of Trolox equivalent per 412.3 mg capsule"
same,ORAChydro value,[4]; per gram,"28,000 micromole Trolox equivalent per gram"
same,times less mutagenic than quercetin,bacterial mutagenicity; relative to quercetin,400 times
same,minimum mutagenic dose,bacterial mutagenicity,1626 nmol
"O=c1c(O)c(-c2ccc(O)c(O)c2)oc2cc(O)cc(O)c12 [quercetin, reference compound]",minimum mutagenic dose,bacterial mutagenicity,4 nml
Larch Arabinogalactan,"occasional reaction of bloating and flatulence, share of individuals",[5],less than three percent
catechin [reference compound],pro-oxidant activity,[2],did not present pro-oxidant activity
